Assay results: patent US8859580B2 (Boehringer Ingelheim International GmbH, priority 2007, dated 2014)
pIC50: −log10 of the molar value.

These compounds were tested against T1, 11β-HSD1 (Homo sapiens, UniProt P28845) (assay: In vitro inhibition of 11β-HSD1, HTRF detection of cortisol generated from cortisone by human liver microsomes). Conditions: 11β-HSD IC50 (nM), 1 hour at 37° C., pH 6.0, NADPH 200 μM, cortisone 80 nM, inhibition relative to carbenoxolone signal.
T1 construct: detecting cortisol generated from cortisterone by human liver microsomes; from tissue; host or cells: human liver microsomes
T1 sequence (P28845 whole entry): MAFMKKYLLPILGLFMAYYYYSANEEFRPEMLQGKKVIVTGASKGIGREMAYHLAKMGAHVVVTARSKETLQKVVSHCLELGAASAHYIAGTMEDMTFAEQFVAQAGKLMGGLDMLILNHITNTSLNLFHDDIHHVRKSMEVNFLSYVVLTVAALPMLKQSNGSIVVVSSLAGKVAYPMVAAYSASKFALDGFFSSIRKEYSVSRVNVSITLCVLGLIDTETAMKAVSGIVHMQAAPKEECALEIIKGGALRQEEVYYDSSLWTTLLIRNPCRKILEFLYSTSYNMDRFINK
Type: biochemical
Experimental: Cortisol generated in the reaction is then detected with a competitive immunoassay, involving two HTRF conjugates: cortisol linked to XL665 and anti-cortisol antibody labeled with Europium cryptate. The incubation period for detection reaction was typically 2 hours. […] The ratio of the two emission signals is then calculated (Em665*10000/Em615). […] Each assay also contained a calibration curve with cortisol to transform the fluorescent data into cortisol concentrations. Percent inhibition of each compound was determined relative to the carbenoxolone signal and IC50 curves were generated.
`CC1(O)CCN(Cc2ccc(C(=O)N3CC[C@@]4(C)c5cccc(O)c5C[C@@H]3C4(C)C)cc2)CC1` [Example 185, [4-(4-Hydroxy-4-methyl-piperidin-1-ylmethyl)-phenyl]-[(2R,6S)-10-hydroxy-6,11,11-trimethyl-1,2,5,6-tetrahydro-4H-2,6 methano-benzo[d]azocin-3-yl]-methanone] gave an IC50 of 5370 nM. Compound `CC12CCN(C(=O)c3ccc4nc[nH]c4c3)C(Cc3cc(O)ccc31)C2(C)C` (centres unmarked) [Example 59, (3H-Benzoimidazol-5-yl)-(9-hydroxy-6,11,11-trimethyl-1,2,5,6-tetrahydro-4H-2,6-methano-benzo[d]azocin-3-yl)-methanone] has an IC50 of 36 nM. Work on `CC(O)c1ccc2c(c1)[C@]1(C)CCN(C(=O)c3ccc4nc[nH]c4c3)[C@H](C2)C1(C)C` (stereo partly drawn) [Example 211, (3H-Benzoimidazol-5-yl)-[(2R,6S)-8-(1-hydroxy-ethyl)-6,11,11-trimethyl-1,2,5,6-tetrahydro-4H-2,6-methano-benzo[d]azocin-3-yl]-methanone] yielded an IC50 of 31 nM. In the case of `CC1(C)[C@H]2Cc3c(O)cccc3[C@]1(C)CCN2C(=O)c1ccc(CN2CCCC2)cc1` [Example 120, [(2R,6S)-10-Hydroxy-6,11,11-trimethyl-1,2,5,6-tetrahydro-4H-2,6-methano-benzo[d]azocin-3-yl]-(4-pyrrolidin-1-ylmethyl-phenyl)-methanone], the IC50 was 3840 nM. Work on `COc1cc2c(cc1OC)C1(C)CCN(C(=O)c3ccc4nc[nH]c4c3)C(C2)C1(C)C` (centres unmarked) [Example 72, (3H-Benzoimidazol-5-yl)-(8,9-dimethoxy-6,11,11-trimethyl-1,2,5,6-tetrahydro-4H-2,6-methano-benzo[d]azocin-3-yl)-methanone] yielded an IC50 of 148 nM. `C[C@@H]1[C@@H]2Cc3ccc(O)cc3[C@@]1(C)CCN2C(=O)c1ccc2nc[nH]c2c1` [Example 246, (3H-Benzoimidazol-5-yl)-[(2S,6S,11S)-8-hydroxy-6,11-dimethyl-1,2,5,6-tetrahydro-4H-2,6-methano-benzo[d]azocin-3-yl)-methanone] was tested, and the IC50 was 637 nM. `CC1(C)[C@H]2Cc3ccccc3[C@]1(C)CCN2C(=O)c1c(F)c(F)c(N)c(F)c1F` [Example 281, (4-Amino-2,3,5,6-tetrafluoro-phenyl)-[(2R,6S)-6,11,11-trimethyl-1,2,5,6-tetrahydro-4H-2,6-methano-benzo[d]azocin-3-yl]-methanone] gave an IC50 of 918 nM. `CC1CN(Cc2ccc(C(=O)N3CC[C@@]4(C)c5cccc(O)c5C[C@@H]3C4(C)C)cc2)CC(C)O1` (stereo partly drawn) [Example 184, [4-(2,6-Dimethyl-morpholin-4-ylmethyl)-phenyl]-[(2R,6S)-10-hydroxy-6,11,11-trimethyl-1,2,5,6-tetrahydro-4H-2,6-methano-benzo[d]azocin-3-yl]-methanone] showed an IC50 of 1150 nM. With `Cc1cc(C(=O)N2CC[C@@]3(C)c4cccc(O)c4C[C@@H]2C3(C)C)nn1C` [Example 124, (1,5-Dimethyl-1H-pyrazol-3-yl)-[(2R,6S)-10-hydroxy-6,11,11-trimethyl-1,2,5,6-tetrahydro-4H-2,6-methano-benzo[d]azocin-3-yl]-methanone] the IC50 was 658 nM. `CC1(C)C2CCN(C(=O)c3ccc4nc[nH]c4c3)C1Cc1c(O)cccc12` (centres unmarked) [Example 183, (3H-Benzoimidazol-5-yl)-(10-hydroxy-11,11-dimethyl-1,2,5,6-tetrahydro-4H-2,6-methano-benzo[d]azocin-3-yl)-methanone] showed an IC50 of 155 nM. Work on `Cc1nc2cc3c(cc2[nH]1)[C@]1(C)CCN(C(=O)c2ccc4nc[nH]c4c2)[C@H](C3)C1(C)C` [Example 238, (3H-Benzoimidazol-5-yl)-[(6R,10S)-5,6,7,8,9,10-hexahydro-2,10,12,12-tetramethyl-6,10-methano-1H-imidazo[5,4-i][3]benzazocin-7-yl]-methanone] yielded an IC50 of 24 nM. In the case of `Cc1cc2c(cc1O)[C@@]1(C)CCN(C(=O)c3ccc4nc[nH]c4c3)[C@@H](C2)C1(C)C` (stereo in doubt) [Example 66, (3H-Benzoimidazol-5-yl)-[(2S,6R)-8-hydroxy-6,9,11,11-tetramethyl-1,2,5,6-tetrahydro-4H-2,6-methano-benzo[d]azocin-3-yl]-methanone], the IC50 was 822 nM. For `NC(=O)C12CCN(C(=O)c3ccc4nc[nH]c4c3)C(Cc3ccc(O)cc31)C2` (centres unmarked) [Example 214, 3-(3H-Benzoimidazole-5-carbonyl)-8-hydroxy-2,3,4,5-tetrahydro-1H-2,6-methano-benzo[d]azocine-6-carboxylic acid amide], the IC50 was 5710 nM. `C[C@@H]1C[C@]2(C)C[C@@H](Cc3ccccc32)N1C(=O)c1ccc2nc[nH]c2c1` (racemic) [Example 253, (3H-Benzoimidazol-5-yl)-(4,6-dimethyl 1,2,5,6-tetrahydro-4H-2,6-methano-benzo[d]azocin-3-yl)-methanone] showed an IC50 of 78 nM. With `CC1(C)[C@H]2Cc3ccccc3[C@]1(C)CCN2C(=O)c1ccc2c(c1)CC(=O)N2` [Example 298, 5-[(2R,6S)-6,11,11-Trimethyl-1,2,5,6-tetrahydro-4H-2,6-methano-benzo[d]azocine-3-carbonyl]-1,3-dihydro indol-2-one] the IC50 was 99 nM. For `CC1(C)[C@H]2Cc3c(O)cccc3[C@]1(C)CCN2C(=O)c1ccccn1` [Example 128, [(2R,6S)-10-Hydroxy-6,11,11-trimethyl-1,2,5,6-tetrahydro-4H-2,6-methano-benzo[d]azocin-3-yl]-pyridin-2-yl-methanone], the IC50 was 1290 nM. Compound `CC1(C)[C@H]2Cc3ccccc3[C@]1(C)CCN2C(=O)c1cccc(O)c1` [Example 319, (3-Hydroxy-phenyl)-[(2R,6S)-6,11,11-trimethyl-1,2,5,6-tetrahydro-4H-2,6-methano-benzo[d]azocin-3-yl]-methanone] has an IC50 of 446 nM. For `COC(=O)c1cc(F)cc(C(=O)N2CC[C@@]3(C)c4cccc(O)c4C[C@@H]2C3(C)C)c1` [Example 43, 3-Fluoro-5-[(2R,6S)-10-hydroxy-6,11,11-trimethyl-1,2,5,6-tetrahydro-4H-2,6-methano-benzo[d]azocine-3-carbonyl]-benzoic acid methyl ester], the IC50 was 1760 nM. Compound `COC12CCN(C(=O)c3ccc4nc[nH]c4c3)C(Cc3ccccc31)C2(C)C` (centres unmarked) [Example 103, (3H-Benzoimidazol-5-yl)-(6-methoxy-11,11-dimethyl-1,2,5,6-tetrahydro-4H-2,6-methano-benzo[d]azocin-3-yl)-methanone] has an IC50 of 86 nM. Work on `CC1(C)[C@H]2Cc3c(O)cccc3[C@]1(C)CCN2C(=O)c1ccnn1-c1ccccc1` [Example 216, [(2R,6S)-10-Hydroxy-6,11,11-trimethyl-1,2,5,6-tetrahydro-4H-2,6-methano-benzo[d]azocin-3-yl]-(2-phenyl-2H-pyrazol-3-yl)-methanone] yielded an IC50 of 1720 nM. Work on `CC(O)(c1cccc(C(=O)N2CC[C@@]3(C)c4cccc(O)c4C[C@@H]2C3(C)C)c1)C(F)(F)F` (stereo partly drawn) [Example 260, [(2R,6S)-10-Hydroxy-6,11,11-trimethyl-1,2,5,6-tetrahydro-4H-2,6-methano-benzo[d]azocin-3-yl]-[3-(2,2,2-trifluoro-1-hydroxy-1-methyl-ethyl)-phenyl]-methanone] yielded an IC50 of 181 nM. `Cc1cnc(-c2nc3cc4c(cc3o2)C[C@H]2N(C(=O)c3ccc5nc[nH]c5c3)CC[C@]4(C)C2(C)C)cn1` [Example 313, (3H-Benzoimidazol-5-yl)-[(6R,10S)-5,6,7,8,9,10-hexahydro-10,12,12-trimethyl-2-(5-methyl-pyrazin-2-yl)-6,10-methano-oxazolo[4,5-i][3]benzazocin-7-yl]-methanone] was tested, and the IC50 was 61 nM. `CC1(C)[C@H]2Cc3ccccc3[C@]1(C)CCN2C(=O)c1ccc2c(c1)C(O)CC2` (stereo partly drawn) [Example 291, (3-Hydroxy-indan-5-yl)-[(2R,6S)-6,11,11-trimethyl-1,2,5,6-tetrahydro-4H-2,6-methano-benzo[d]azocin-3-yl]-methanone] was tested, and the IC50 was 183 nM. In the case of `CC(C)(O)c1ccc2c(c1)[C@]1(C)CCN(C(=O)c3ccc4nc[nH]c4c3)[C@H](C2)C1(C)C` [Example 229, (3H-Benzoimidazol-5-yl)-[(2R,6S)-8-(1-hydroxy-1-methyl-ethyl)-6,11,11-trimethyl-1,2,5,6-tetrahydro-4H-2,6-methano-benzo[d]azocin-3-yl]-methanone], the IC50 was 68 nM. For `CC1(O)CCc2ccc(C(=O)N3CC[C@@]4(C)c5ccccc5C[C@@H]3C4(C)C)cc21` (stereo partly drawn) [Example 292, (3-Hydroxy-3-methyl-indan-5-yl)-[(2R,6S)-6,11,11-trimethyl-1,2,5,6-tetrahydro-4H-2,6-methano-benzo[d]azocin-3-yl]-methanone], the IC50 was 502 nM. In the case of `CN(C)C(=O)c1ccc(C(=O)N2CC[C@@]3(C)c4cccc(O)c4C[C@@H]2C3(C)C)cc1` [Example 37, 4-[(2R,6S)-10-Hydroxy-6,11,11-trimethyl-1,2,5,6-tetrahydro-4H-2,6-methano-benzo[d]azocine-3-carbonyl]-N,N-dimethyl-benzamide], the IC50 was 998 nM. Work on `CC1(C)[C@H]2Cc3c(O)cccc3[C@]1(C)CCN2C(=O)c1ccc(CN2CCCCC2)cc1` [Example 22, [(2R,6S)-10-Hydroxy-6,11,11-trimethyl-1,2,5,6-tetrahydro-4H-2,6-methano-benzo[d]azocin-3-yl]-(4-piperidin-1-ylmethyl-phenyl)-methanone] yielded an IC50 of 5040 nM.

Same assay, conditions: 1 hour at 37° C., pH 6.0, NADPH 200 μM, cortisone 80 nM, inhibition relative to carbenoxolone signal, read-out: 11β-HSD IC50
`O=C(c1ccc2nc[nH]c2c1)N1CCC2CC1c1ccc(O)cc12` (centres unmarked) [Example 100, (3H-Benzoimidazol-5-yl)-(4-hydroxy-9-aza-tricyclo[6.3.1.0*2,7*]dodeca-2,4,6-trien-9-yl)-methanone] was tested, and the pIC50 was 6.25. In the case of `COc1ccc2c(c1)C1CCN(C(=O)c3ccc4nc[nH]c4c3)C1C2` (centres unmarked) [Example 321, (3H-Benzoimidazol-5-yl)-(5-methoxy-3,3a,8,8a-tetrahydro-2H-1-aza-cyclopenta[a]inden-1-yl)-methanone], the pIC50 was 5.93.
